According to PubChem BioAssay (NCI):
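Dose response: 5 concentrations. Exposure: 48 h. Format: 96-well plates. Endpoint: linear interpolation; highest concentration if not reached. Definition used: TGI = concentration required for complete inhibition of growth.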

Assays:
Assay in all cases: NCI tumour cell line growth inhibition, 48 h
[1] = test system: OVCAR-8 ovarian
[2] = test system: SN12C renal
[3] = test system: NCI-H522 lung
[4] = test system: OVCAR-5 ovarian
[5] = test system: SR leukemia
[6] = test system: UO-31 renal
[7] = test system: MDA-MB-435
[8] = test system: U251 CNS
[9] = test system: SNB-78 CNS
[10] = test system: SW-620 colon
[11] = test system: HCT-15 colon
[12] = test system: HCT-116 colon
[13] = test system: NCI/ADR-RES ovarian
[14] = test system: DU-145 prostate
[15] = test system: RPMI-8226 leukemia
[16] = test system: PC-3 prostate
[17] = test system: HT29 colon
[18] = test system: CAKI-1 renal
[19] = test system: SF-268 CNS
[20] = test system: OVCAR-4 ovarian
[21] = test system: A498 renal
[22] = test system: XF 498 CNS
[23] = test system: LOX IMVI melanoma
[24] = test system: SF-295 CNS
[25] = test system: MOLT-4 leukemia
[26] = test system: COLO 205 colon
[27] = test system: TK-10 renal
[28] = test system: OVCAR-3 ovarian
[29] = test system: RXF 393 renal
[30] = test system: 786-0 renal
[31] = test system: HS 578T breast
[32] = test system: DMS 273 small cell lung
[33] = test system: HCC-2998 colon
[34] = test system: MDA-MB-231 breast
[35] = test system: IGROV1 ovarian
[36] = test system: HOP-62 NSCLC
[37] = test system: UACC-62 melanoma
[38] = test system: SK-MEL-28 melanoma
[39] = test system: NCI-H23 lung
[40] = test system: A549 NSCLC
[41] = test system: ACHN renal
[42] = test system: MDA-N
[43] = test system: LXFL 529 NSCLC
[44] = test system: SK-MEL-2 melanoma
[45] = test system: DLD-1 colon
[46] = test system: T-47D breast
[47] = test system: EKVX NSCLC
[48] = test system: KM20L2 colon
[49] = test system: HOP-18 NSCLC
[50] = test system: MCF7 breast
[51] = test system: SK-MEL-5 melanoma
[52] = test system: BT-549 breast
[53] = test system: SNB-75 CNS
[54] = test system: HL-60(TB) leukemia
[55] = test system: M14 melanoma
[56] = test system: UACC-257 melanoma
[57] = test system: HOP-92 NSCLC
[58] = test system: SK-OV-3 ovarian
[59] = test system: MALME-3M melanoma
[60] = test system: M19-MEL melanoma
[61] = test system: SNB-19 CNS
[62] = test system: NCI-H226 lung
[63] = test system: CCRF-CEM leukemia
[64] = test system: NCI-H460 lung
[65] = test system: KM12 colon
[66] = test system: K-562 leukemia
[67] = test system: SF-539 CNS
[68] = test system: DMS 114 small cell lung

`CCCCCCCCCCCCCCCC(=O)OCC1OC(n2ccc(N)nc2=O)C(O)C1O` (configuration not stated) gave a TGI [1] of over 100 µM, a TGI [2] of over 100 µM and a TGI [3] of over 100 µM. The TGI [4] was over 100 µM, the TGI [5] was 84.5 µM and the TGI [6] was over 44.7 µM. For the same compound, the TGI [7] was over 100 µM, the TGI [8] was over 100 µM and the TGI [9] was over 100 µM. The TGI [10] was over 100 µM, the TGI [11] was over 100 µM and the TGI [12] was over 100 µM. For the same compound, the TGI [13] was over 100 µM, the TGI [14] was 67.2 µM and the TGI [15] was over 100 µM. The TGI [16] was over 100 µM, the TGI [17] was over 100 µM and the TGI [18] was over 100 µM. It also gave a TGI [19] of over 100 µM, a TGI [20] of over 100 µM and a TGI [21] of over 100 µM. The TGI [22] was over 100 µM, the TGI [23] was over 100 µM and the TGI [24] was over 100 µM. For the same compound, the TGI [25] was 44.8 µM, the TGI [26] was over 100 µM and the TGI [27] was over 100 µM. For the same compound, the TGI [28] was over 97 µM, the TGI [29] was over 100 µM and the TGI [30] was over 50.5 µM. It also gave a TGI [31] of over 100 µM, a TGI [32] of over 100 µM and a TGI [33] of over 100 µM. For the same compound, the TGI [34] was over 100 µM, the TGI [35] was over 100 µM and the TGI [36] was over 66.6 µM. For the same compound, the TGI [37] was over 100 µM, the TGI [38] was over 100 µM and the TGI [39] was over 41.6 µM. For the same compound, the TGI [40] was over 100 µM, the TGI [41] was over 44.2 µM and the TGI [42] was over 100 µM. It also gave a TGI [43] of over 100 µM, a TGI [44] of over 100 µM and a TGI [45] of over 100 µM. For the same compound, the TGI [46] was over 100 µM, the TGI [47] was over 100 µM and the TGI [48] was over 100 µM. The TGI [49] was over 100 µM, the TGI [50] was over 100 µM and the TGI [51] was over 100 µM. For the same compound, the TGI [52] was over 100 µM, the TGI [53] was over 100 µM and the TGI [54] was over 61.8 µM. For the same compound, the TGI [55] was 33.7 µM, the TGI [56] was over 100 µM and the TGI [57] was over 100 µM. For the same compound, the TGI [58] was over 100 µM, the TGI [59] was over 54.6 µM and the TGI [60] was over 100 µM. It also gave a TGI [61] of over 100 µM, a TGI [62] of over 100 µM and a TGI [63] of 8.85 µM. It also gave a TGI [64] of over 40.6 µM, a TGI [65] of over 100 µM and a TGI [66] of over 100 µM. For the same compound, the TGI [67] was over 100 µM.
Compound `Fc1nc(F)nc(-c2c3ccccc3c3n2CCS3)n1` has a TGI [2] of over 100 µM, a TGI [3] of over 100 µM and a TGI [4] of over 100 µM. The TGI [5] was over 100 µM, the TGI [6] was over 100 µM and the TGI [8] was 92.7 µM. For the same compound, the TGI [9] was over 100 µM, the TGI [10] was over 100 µM and the TGI [11] was over 100 µM. The TGI [12] was over 100 µM, the TGI [15] was over 100 µM and the TGI [17] was over 100 µM. The TGI [18] was over 100 µM, the TGI [19] was over 100 µM and the TGI [20] was over 100 µM. For the same compound, the TGI [21] was over 100 µM, the TGI [22] was over 100 µM and the TGI [23] was over 100 µM. It also gave a TGI [24] of over 100 µM, a TGI [26] of over 100 µM and a TGI [28] of over 100 µM. It also gave a TGI [29] of over 100 µM, a TGI [30] of over 100 µM and a TGI [32] of over 100 µM. It also gave a TGI [33] of over 100 µM, a TGI [35] of over 100 µM and a TGI [36] of over 100 µM. For the same compound, the TGI [38] was over 100 µM, the TGI [39] was over 100 µM and the TGI [40] was over 100 µM. It also gave a TGI [41] of over 100 µM, a TGI [43] of over 100 µM and a TGI [44] of over 100 µM. The TGI [45] was over 100 µM, the TGI [47] was over 100 µM and the TGI [48] was over 100 µM. For the same compound, the TGI [68] was over 100 µM, the TGI [51] was over 100 µM and the TGI [53] was over 100 µM. For the same compound, the TGI [54] was over 100 µM, the TGI [55] was over 100 µM and the TGI [57] was over 100 µM. The TGI [58] was over 100 µM, the TGI [59] was over 100 µM and the TGI [60] was over 100 µM. For the same compound, the TGI [61] was over 100 µM, the TGI [62] was over 100 µM and the TGI [63] was over 100 µM. It also gave a TGI [64] of over 100 µM, a TGI [65] of over 100 µM and a TGI [66] of over 100 µM. The TGI [67] was over 100 µM.
`O=C(CCN1CCCCC1CO)Nc1ccc2c(c1)C(=O)c1ccc(NC(=O)CCN3CCCCC3CO)cc1C2=O` (configuration not stated) showed a TGI [1] of 39.6 µM, a TGI [2] of 25.5 µM and a TGI [3] of 20.6 µM. The TGI [4] was 67.5 µM, the TGI [5] was 68.9 µM and the TGI [6] was 26.7 µM. The TGI [8] was 20.6 µM, the TGI [9] was 34.6 µM and the TGI [10] was 27 µM. The TGI [11] was 54 µM, the TGI [12] was 19.6 µM and the TGI [15] was 48 µM. It also gave a TGI [17] of 31.6 µM, a TGI [18] of 57.6 µM and a TGI [19] of 40.6 µM. For the same compound, the TGI [20] was 27.1 µM, the TGI [21] was 9.87 µM and the TGI [23] was 20.8 µM. It also gave a TGI [24] of 62.6 µM, a TGI [25] of 35.7 µM and a TGI [26] of 21.7 µM. For the same compound, the TGI [27] was 27.2 µM, the TGI [29] was 7.45 µM and the TGI [30] was 6.58 µM. The TGI [32] was 19.2 µM, the TGI [33] was 20.8 µM and the TGI [35] was 23.1 µM. It also gave a TGI [36] of 64.2 µM, a TGI [37] of 23.6 µM and a TGI [38] of 28.4 µM. It also gave a TGI [39] of 38.1 µM, a TGI [40] of 82.4 µM and a TGI [41] of 32 µM. It also gave a TGI [43] of 9.71 µM, a TGI [44] of 18.8 µM and a TGI [47] of 47 µM. The TGI [48] was 76.4 µM, the TGI [68] was 30.9 µM and the TGI [51] was 29 µM. It also gave a TGI [54] of 29.8 µM, a TGI [55] of 22.4 µM and a TGI [56] of 91.3 µM. It also gave a TGI [57] of 37.2 µM, a TGI [58] of 46.2 µM and a TGI [59] of 18.8 µM. It also gave a TGI [60] of 29.3 µM, a TGI [61] of 31.2 µM and a TGI [62] of 52.5 µM. It also gave a TGI [63] of 30.5 µM, a TGI [64] of 24.2 µM and a TGI [65] of 17.1 µM. For the same compound, the TGI [66] was 46.1 µM and the TGI [67] was 16.1 µM.
